The first data set in a line: FIG. 17.
Details: not given
As to the method:
Table printed on a drawing sheet, FIG. 17
The patent's description of the figure: FIG. 17 illustrates systematic scanning of the effects of thioamide modification position in a peptide. The thioamide modifications were conducted at different positions of the peptide chain. The resulting peptides were mixed with either papain or trypsin enzymes to measure the changes of fluorescence intensity. The “+” sign after the peptide sequence means the presence of the corresponding enzyme. The “−” sign after the peptide sequence means the lack of the corresponding enzyme.
First reader's note: Raised S after a residue marks the thioamide position; the half-lives are proteolytic half-lives in the presence of papain or trypsin.
Consider μLLKAAA^Sμ [compound 58], for which the “Papain t1/2” value came to 5 min and the “Trypsin t1/2” value came to 2 min. Consider μLLKAAAμ [compound 52], for which the “Papain t1/2” value was determined as 5 min and the “Trypsin t1/2” value was 1 min. On the same counts, the results for μLLKAA^SAμ [compound 57] are 4 min and 2 min. The like results for μLLKA^SAAμ [compound 56] were, in that order, above 30 min and 3 min. Regarding μLLR^SAAAμ [compound 55], the “Papain t1/2” value turned out to be 12 min and the “Trypsin t1/2” value was above 200 min.

On to μLL^SKAAAμ [compound 54], for which the “Papain t1/2” value is recorded as 180 min and the “Trypsin t1/2” value was found to be 2 min.

In the case of μL^SLKAAAμ [compound 53], the “Papain t1/2” value came to 4 min and the “Trypsin t1/2” value came out at 4 min.

Experiment in another data set: not given
As to conditions: in vivo; cited from earlier work.
With “GIP: glucose-dependent insulinotropic factor, SEQ ID NO:5”, the “half-life (in vivo / circulating)” value is listed as “less than 15 minutes”.

Staying with this data set, now noted: native peptide, DPP-4 substrate; cited from earlier work.
Regarding “ENT: enterostatin, SEQ ID NO:47 (APGPR; listed as Homo sapiens)”, the “half-life (in vivo / circulating)” value is 5 min. For “GHRH: growth-hormone-releasing hormone, SEQ ID NO:43”, the “half-life (in vivo / circulating)” value is 19 min. Take “NPY: neuropeptide Y, SEQ ID NO:23, 36-amino acid peptide”: the “half-life (in vivo / circulating)” value was 15 to 20 min.

The record behind these values is patent US11891425B2, “Thioamide-modified peptides and uses thereof” (THE TRUSTEES OF THE UNIVERSITY OF PENNSYLVANIA, priority 2014, dated 2024).
